Experimental data taken from publication PMC9334755 (Cancer Biology & Medicine, 2021).
Read-outs that look alike come from different tables or passages of the source.

Columns and labels:
CSK = CSK (Homo sapiens, UniProt P41240); experiment: Protein kinase panel at 1 µM, CSK; assay type: biochemical
CYP2D6 = CYP2D6 (Homo sapiens, UniProt P10635); assay type: in vitro ADME
Source text: (§1) Table S8 Inhibition of CYP isozymes by SY-1530 […]
(§2) (1 picture or pasted object on this page, not shown here)

CYP2B6 = CYP2B6 (Homo sapiens, UniProt P20813); assay type: in vitro ADME
Source text: as §1, §2

CYP2C19 = CYP2C19 (Homo sapiens, UniProt P33261); assay type: in vitro ADME
Source text: as §1, §2

EGFR = EGFR (Homo sapiens, UniProt P00533); experiment: HTRF kinase assay, EGFR
Procedure: Homogeneous time-resolved fluorescence (HTRF) assays were performed with a HTRF® KinEASE™-TK kit (Trevigen).

human peripheral B cells = experiment: CD69 up-regulation in B cells after anti-IgM stimulation; assay type: cell-based
Procedure: CD19^+ B (>80% purity) and CD3^+ T (>90% purity) cells were purified with human B cell enrichment cocktail and human T cell enrichment cocktail (Stem Cell Technology), respectively. Cells were seeded on 12-well plates and incubated with different concentrations of BTK inhibitors for 1 h. B cells were stimulated with 50 µg/mL anti-human IgM F(ab′)2, and T cells were stimulated with 50 µg/mL anti-CD3/CD28 beads overnight. In the washout groups, the cell medium containing the indicated inhibitors was replaced with fresh medium before stimulation. Then cells were then incubated with anti-human CD69 for 1 h and analyzed with a Guava flow cytometer.
Figure 4 SY-1530 blocks B-cell receptor signaling and induces apoptosis. (A–D) Human B and T cells were purified and incubated with different concentrations of BTK inhibitors for 1 h. B cells were stimulated with 50 μg/mL anti-human IgM F(ab′)2, and T cells were stimulated with 50 μg/mL anti-CD3/CD28 beads overnight directly or after washout of BTK inhibitors before stimulation. The percentage of CD69 positive cells was analyzed by flow cytometry. Data are shown as the mean ± SEM (n = 3). Statistical analysis was performed with Student’s t-test (*P < 0.05, **P < 0.01, ***P < 0.001). (E) Pfeiffer cells and Romas cells were preincubated with different concentrations of compounds for 1 h, washed with PBS, and then stimulated with anti-IgM/anti-IgG (10 μg/mL) for 10 min. Cells were lysed and analyzed by Western blot with the indicated antibodies. (F) Pfeiffer cells were treated with various concentrations of SY-1530 for 24 h. The cells were stained with both PE-Annexin and 7-AAD and analyzed by flow cytometry. Data are shown as the mean ± SEM (n = 3). Statistical analysis was performed with Student’s t-test (*P < 0.05, **P < 0.01). (G) Pfeiffer cells were incubated with BTK inhibitors in the presence of z-VAD-fmk (caspase inhibitor) or DMSO for 24 h. Cells were lysed and analyzed with specific antibodies.

Rat = conditions: in vivo
Source text: (§3) Table S9 Preclinical safety of SY-1530
(§4) Group Single-dose toxicity Multiple-dose toxicity
(§5) Animal Rat Beagle dog Rat Beagle dog

Beagle dog = conditions: in vivo
Source text: as §3, §4, §5

hERG = hERG (Homo sapiens, UniProt Q12809)
Source text: Tissue distribution *From the literature.
Hear Liver Spleen LungKidney Brain Uteru Ovar TestisPlasma
Compound Maximum concentration (μM) Inhibition rate of maximumconcentration IC 50 (μM) […]

[1] = system: spontaneous canine B-cell lymphoma; experiment: Spontaneous canine B-cell lymphoma; assay type: in vivo, dog; set-up: key to Outcome: CR: complete response; PR: partial response; PD: progressive disease; SD: stable disease
Procedure: Dogs with spontaneous lymphoma were purchased from the China Agricultural University Veterinary Teaching Hospital, and the study was approved by the institutional animal care and use committee of Shouyao Holdings (approval No. CTA-2014003). The inclusion criterion was a confirmed histologic diagnosis of B-cell lymphoma (on the basis of immunohistochemistry for CD21 and CD79a). SY-1530 capsules (20–40 mg) were administered daily until disease progression. The dogs were re-examined every week for 4 weeks and subsequently biweekly. The sum of the longest diameters of all target lesions was defined as the tumor burden. According to the criteria for evaluation of the response of peripheral nodal lymphoma in dogs developed by the Veterinary Cooperative Oncology Group, the response was classified as complete response, partial response, progressive disease, or stable disease.

[2] = dog, in vivo
BTK [3] = molecular target: T1, BTK (Homo sapiens, UniProt Q06187); experiment: Recovery of BTK activity after dilution (HTRF); assay type: biochemical; conditions: BTK incubated with inhibitor for 2 h, mixture diluted
Procedure: In addition, after incubation of BTK with the inhibitors for 4 h, we performed liquid chromatography-tandem mass spectrometry (LC-MS/MS) to detect the abundance of the inhibitors.
(A) The compounds were incubated with BTK for 2 h, after which HTRF assays were performed with dilution of the mixture. The reactions were stopped at different time points. Data are shown as the mean ± SEM. (B) The content of the compounds was measured with LC-MS/MS after incubation with BTK for 4 h. Data are shown as the mean ± SEM (n = 3). Statistical analysis was performed with Student’s t-test (***P < 0.001). […] Cells were lysed and analyzed by Western blot and fluorescent gel scanning.

BTK [4] = molecular target: T1, BTK; experiment: HTRF assay of BTK activity; assay type: biochemical; conditions: double reciprocal curve
YES1 = YES1 (Homo sapiens, UniProt P07947); experiment: Protein kinase panel at 1 µM, YES1; assay type: biochemical
Chain of YES1 (P07947 whole entry, species assumed): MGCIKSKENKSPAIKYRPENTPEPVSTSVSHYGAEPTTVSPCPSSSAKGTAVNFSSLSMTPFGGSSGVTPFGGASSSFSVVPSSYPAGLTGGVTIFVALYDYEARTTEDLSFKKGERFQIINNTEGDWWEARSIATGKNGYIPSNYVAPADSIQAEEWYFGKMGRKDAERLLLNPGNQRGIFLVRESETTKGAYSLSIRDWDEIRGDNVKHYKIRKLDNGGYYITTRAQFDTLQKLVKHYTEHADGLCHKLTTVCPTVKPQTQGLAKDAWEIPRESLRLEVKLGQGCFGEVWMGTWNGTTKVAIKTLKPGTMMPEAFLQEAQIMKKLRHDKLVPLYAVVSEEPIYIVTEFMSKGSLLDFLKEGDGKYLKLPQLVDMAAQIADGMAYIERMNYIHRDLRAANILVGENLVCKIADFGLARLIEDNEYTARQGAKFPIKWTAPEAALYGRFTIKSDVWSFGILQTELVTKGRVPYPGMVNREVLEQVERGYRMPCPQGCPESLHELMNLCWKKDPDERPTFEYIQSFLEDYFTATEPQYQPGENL

Chain of EGFR (P00533 25-1210): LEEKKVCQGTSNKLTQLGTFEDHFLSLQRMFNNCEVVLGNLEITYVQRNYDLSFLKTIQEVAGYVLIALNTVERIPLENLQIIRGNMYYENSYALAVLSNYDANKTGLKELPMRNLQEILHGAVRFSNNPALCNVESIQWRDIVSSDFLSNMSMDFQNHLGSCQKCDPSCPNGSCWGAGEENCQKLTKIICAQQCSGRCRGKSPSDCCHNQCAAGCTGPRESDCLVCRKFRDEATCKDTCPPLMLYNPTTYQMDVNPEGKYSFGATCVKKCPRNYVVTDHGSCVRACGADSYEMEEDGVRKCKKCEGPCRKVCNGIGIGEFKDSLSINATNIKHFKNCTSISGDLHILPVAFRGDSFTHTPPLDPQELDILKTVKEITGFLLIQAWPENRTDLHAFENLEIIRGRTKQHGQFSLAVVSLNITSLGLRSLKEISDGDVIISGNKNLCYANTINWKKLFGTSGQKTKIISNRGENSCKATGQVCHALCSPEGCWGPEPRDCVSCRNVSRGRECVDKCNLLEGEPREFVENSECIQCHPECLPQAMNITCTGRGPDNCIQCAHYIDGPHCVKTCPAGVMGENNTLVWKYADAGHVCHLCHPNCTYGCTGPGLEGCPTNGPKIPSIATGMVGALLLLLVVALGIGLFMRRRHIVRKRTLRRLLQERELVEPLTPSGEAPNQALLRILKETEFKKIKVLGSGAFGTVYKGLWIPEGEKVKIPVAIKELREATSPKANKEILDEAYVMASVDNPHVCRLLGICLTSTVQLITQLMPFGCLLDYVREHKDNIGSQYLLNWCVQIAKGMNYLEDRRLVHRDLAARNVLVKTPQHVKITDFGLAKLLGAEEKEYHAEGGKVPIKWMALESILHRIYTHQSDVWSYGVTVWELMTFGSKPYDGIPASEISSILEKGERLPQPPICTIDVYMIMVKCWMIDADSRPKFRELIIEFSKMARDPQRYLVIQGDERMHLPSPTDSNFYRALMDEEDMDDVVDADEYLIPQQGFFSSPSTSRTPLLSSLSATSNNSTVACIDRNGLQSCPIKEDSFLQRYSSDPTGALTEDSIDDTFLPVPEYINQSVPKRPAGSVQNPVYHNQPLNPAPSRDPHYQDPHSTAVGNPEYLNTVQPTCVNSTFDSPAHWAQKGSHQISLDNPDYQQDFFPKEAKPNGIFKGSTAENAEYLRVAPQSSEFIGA
Chain of hERG (Q12809 whole entry): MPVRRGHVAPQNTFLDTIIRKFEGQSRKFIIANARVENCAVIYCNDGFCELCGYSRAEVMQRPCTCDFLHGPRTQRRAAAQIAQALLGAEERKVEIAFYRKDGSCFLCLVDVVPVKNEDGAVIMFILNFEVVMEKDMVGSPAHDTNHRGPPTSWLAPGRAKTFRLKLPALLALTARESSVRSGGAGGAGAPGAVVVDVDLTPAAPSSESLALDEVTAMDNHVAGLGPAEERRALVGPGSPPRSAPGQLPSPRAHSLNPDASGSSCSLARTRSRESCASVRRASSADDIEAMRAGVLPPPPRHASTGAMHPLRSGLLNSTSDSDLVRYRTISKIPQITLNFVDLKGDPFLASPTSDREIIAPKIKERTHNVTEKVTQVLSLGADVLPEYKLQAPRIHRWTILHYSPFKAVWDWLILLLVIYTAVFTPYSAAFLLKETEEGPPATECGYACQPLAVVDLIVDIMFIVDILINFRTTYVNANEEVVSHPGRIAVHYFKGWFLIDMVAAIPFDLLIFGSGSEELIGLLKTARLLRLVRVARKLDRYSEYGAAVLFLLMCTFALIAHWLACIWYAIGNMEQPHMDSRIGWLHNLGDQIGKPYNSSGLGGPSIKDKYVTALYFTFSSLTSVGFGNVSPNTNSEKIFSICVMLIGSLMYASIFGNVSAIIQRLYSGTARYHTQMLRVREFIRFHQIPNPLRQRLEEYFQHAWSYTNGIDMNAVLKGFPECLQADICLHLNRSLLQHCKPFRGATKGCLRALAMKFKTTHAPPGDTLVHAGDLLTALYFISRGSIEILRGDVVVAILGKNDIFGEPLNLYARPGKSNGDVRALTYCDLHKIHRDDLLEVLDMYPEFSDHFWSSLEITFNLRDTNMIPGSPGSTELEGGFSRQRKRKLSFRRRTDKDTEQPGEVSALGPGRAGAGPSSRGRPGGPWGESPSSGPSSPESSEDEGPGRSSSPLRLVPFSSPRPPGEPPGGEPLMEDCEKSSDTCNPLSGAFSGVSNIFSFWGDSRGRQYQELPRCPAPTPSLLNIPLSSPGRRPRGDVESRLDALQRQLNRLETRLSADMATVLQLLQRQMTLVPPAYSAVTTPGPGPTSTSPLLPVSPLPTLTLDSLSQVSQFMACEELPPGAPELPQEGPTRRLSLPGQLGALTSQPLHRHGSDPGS
T1 sequence (Q06187 whole entry): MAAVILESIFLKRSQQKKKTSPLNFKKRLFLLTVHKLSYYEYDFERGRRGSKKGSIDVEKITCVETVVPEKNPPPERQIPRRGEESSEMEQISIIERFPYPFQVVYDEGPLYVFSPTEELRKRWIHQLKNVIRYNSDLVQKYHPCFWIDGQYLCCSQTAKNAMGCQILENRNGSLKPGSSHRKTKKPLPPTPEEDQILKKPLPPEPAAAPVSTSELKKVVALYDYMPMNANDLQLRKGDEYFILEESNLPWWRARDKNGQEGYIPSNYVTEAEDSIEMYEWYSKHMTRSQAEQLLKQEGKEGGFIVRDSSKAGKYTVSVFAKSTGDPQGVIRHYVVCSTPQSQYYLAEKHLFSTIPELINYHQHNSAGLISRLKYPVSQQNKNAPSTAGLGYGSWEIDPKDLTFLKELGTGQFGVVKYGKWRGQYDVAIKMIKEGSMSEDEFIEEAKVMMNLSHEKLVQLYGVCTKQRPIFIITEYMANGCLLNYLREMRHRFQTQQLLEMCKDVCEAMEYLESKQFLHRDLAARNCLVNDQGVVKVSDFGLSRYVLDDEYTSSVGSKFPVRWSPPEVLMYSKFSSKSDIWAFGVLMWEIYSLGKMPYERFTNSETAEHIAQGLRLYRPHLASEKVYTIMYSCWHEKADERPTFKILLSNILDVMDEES
Chain of CYP2C19 (P33261 whole entry): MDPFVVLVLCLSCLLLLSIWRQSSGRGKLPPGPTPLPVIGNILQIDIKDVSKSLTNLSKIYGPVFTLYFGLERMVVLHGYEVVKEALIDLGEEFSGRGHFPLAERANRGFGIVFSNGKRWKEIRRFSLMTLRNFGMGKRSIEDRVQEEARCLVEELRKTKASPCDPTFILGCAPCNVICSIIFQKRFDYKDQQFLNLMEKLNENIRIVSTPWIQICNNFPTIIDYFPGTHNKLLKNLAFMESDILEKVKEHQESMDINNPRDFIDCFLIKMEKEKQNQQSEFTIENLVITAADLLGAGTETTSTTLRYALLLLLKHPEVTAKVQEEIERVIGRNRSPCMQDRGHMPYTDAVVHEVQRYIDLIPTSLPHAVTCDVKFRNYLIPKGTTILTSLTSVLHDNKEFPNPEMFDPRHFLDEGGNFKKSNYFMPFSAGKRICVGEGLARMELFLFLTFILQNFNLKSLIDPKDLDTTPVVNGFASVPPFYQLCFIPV
Chain of CSK (P41240 whole entry): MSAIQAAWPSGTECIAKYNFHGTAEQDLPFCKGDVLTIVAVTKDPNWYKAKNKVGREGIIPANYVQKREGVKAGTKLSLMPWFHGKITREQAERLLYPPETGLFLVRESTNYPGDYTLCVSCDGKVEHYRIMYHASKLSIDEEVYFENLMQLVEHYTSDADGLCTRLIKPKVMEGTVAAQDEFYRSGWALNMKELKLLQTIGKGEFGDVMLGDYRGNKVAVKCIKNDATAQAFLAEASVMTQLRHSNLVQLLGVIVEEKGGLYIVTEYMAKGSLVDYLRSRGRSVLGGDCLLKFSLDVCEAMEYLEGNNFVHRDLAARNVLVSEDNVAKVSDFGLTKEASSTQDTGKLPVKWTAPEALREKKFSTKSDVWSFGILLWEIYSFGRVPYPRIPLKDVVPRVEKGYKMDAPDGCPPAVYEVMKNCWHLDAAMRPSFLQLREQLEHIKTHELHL
Chain of CYP2B6 (P20813 whole entry): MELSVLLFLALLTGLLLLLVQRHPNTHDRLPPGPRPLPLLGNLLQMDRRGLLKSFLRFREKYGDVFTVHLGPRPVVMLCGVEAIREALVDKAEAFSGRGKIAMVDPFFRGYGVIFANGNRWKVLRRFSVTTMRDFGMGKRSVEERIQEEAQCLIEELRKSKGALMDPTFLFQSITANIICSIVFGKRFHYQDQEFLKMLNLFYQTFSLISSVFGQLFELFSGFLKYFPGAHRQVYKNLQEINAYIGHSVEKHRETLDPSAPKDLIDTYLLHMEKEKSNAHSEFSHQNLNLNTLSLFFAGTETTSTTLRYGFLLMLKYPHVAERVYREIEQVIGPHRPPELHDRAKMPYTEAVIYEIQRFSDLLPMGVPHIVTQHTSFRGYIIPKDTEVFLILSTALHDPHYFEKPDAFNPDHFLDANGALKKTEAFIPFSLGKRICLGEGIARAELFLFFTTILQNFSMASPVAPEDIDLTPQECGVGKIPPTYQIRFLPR

**Q.** What does the source list for `COC/C=C/C(=O)N1CC[C@@H](n2nc(-c3ccc(Oc4ccccc4)cc3)c(C(N)=O)c2N)C1` [SY-1530]?
**A.** Inhibition (%), CSK (CSK): 84%; IC50 (CYP2D6): > 25 µM; IC50 (CYP2B6): > 25 µM; IC50 (CYP2C19): 23.8 µM; Ratio, EGFR (EGFR; IC50 SY-1530 over IC50 ibrutinib): 225; IC50 (EGFR; read-out: IC50 (nM), EGFR, HTRF): 360 nM; Up-regulation of CD69 in B cells after anti-IgM (human peripheral B cells; continuous exposure, 10 nM): completely abolished; Up-regulation of CD69 in B cells after anti-IgM (human peripheral B cells; inhibitors washed out before BCR stimulation): blocked; MTD (Rat): 2000 mg/kg; MTD (Beagle dog): 1000 mg/kg; IC50 (hERG): 5.41 µM; Inhibition rate of maximum concentration, hERG (hERG; 30 µM): 86.75 ± 2.61%; Outcome ([1]; Dog 01, stage IVb, dose 20/35 mg/kg, treatment interval 21 d): SD/PR; Outcome ([1]; Dog 02, stage IVa, dose 20/30/40 mg/kg, treatment interval 150 d): CR; Outcome ([1]; Dog 04, stage IVa, dose 20/30/40 mg/kg, treatment interval 21 d): SD; Outcome ([1]; Dog 06, stage IVa, dose 20/30/40 mg/kg, treatment interval 21 d): SD; Outcome ([1]; Dog 07, stage IVa, dose 20/30 mg/kg, treatment interval 14 d): SD; Outcome ([1]; Dog 08, stage IVa, dose 35 mg/kg, treatment interval 21 d): SD; Outcome ([1]; Dog 09, stage IVa, dose 35 mg/kg, treatment interval 21 d): SD; Outcome ([1]; Dog 10, stage IVa, dose 35 mg/kg, treatment interval 28 d): PR; Outcome ([1]; Dog 11, stage IIIa, dose 35 mg/kg, treatment interval 14 d): PR; Outcome ([1]; Dog 12, stage IVa, dose 35 mg/kg, treatment interval 21 d): SD; Number of dogs with complete response ([1]; of 10 dogs): 1; Number of dogs with partial response ([1]; of 10 dogs): 3; Number of dogs with stable disease ([1]; of 10 dogs): 6; AUC0–∞ ([2]; iv, 3 mg/kg): 5458 ng·h/mL; CL ([2]; iv, 3 mg/kg): 9.32 mL/min/kg; Vss ([2]; iv, 3 mg/kg): 0.857 L/kg; t½ ([2]; iv, 3 mg/kg): 1.44 h; AUC0–∞ ([2]; po, 10 mg/kg): 4411 ng·h/mL; Cmax ([2]; po, 10 mg/kg): 1039 ng/mL; F (%) ([2]; po, 10 mg/kg): 24.2%; Tmax ([2]; po, 10 mg/kg): 1.08 h; t½ ([2]; po, 10 mg/kg): 3.85 h; AUC0–∞ ([2]; po, 30 mg/kg): 6365 ng·h/mL; Cmax ([2]; po, 30 mg/kg): 1572 ng/mL; F (%) ([2]; po, 30 mg/kg): 11.7%; Tmax ([2]; po, 30 mg/kg): 0.917 h; t½ ([2]; po, 30 mg/kg): 5.33 h; AUC0–∞ ([2]; po, 100 mg/kg): 9095 ng·h/mL; Cmax ([2]; po, 100 mg/kg): 2127 ng/mL; F (%) ([2]; po, 100 mg/kg): 5.00%; Tmax ([2]; po, 100 mg/kg): 1.25 h; t½ ([2]; po, 100 mg/kg): 5.03 h; Recovery of BTK activity after dilution (BTK [3]): did not recover; Type of inhibition with respect to ATP (BTK [4]): non-ATP competitive inhibitor; Inhibition (%), YES1 (YES1): 94%
